According to PMC11355195 (Life, 2024):
Converted amounts (≈) assume the structure as drawn. Read-outs that look alike come from different tables or passages of the source.

What was measured:
COX-2 = target: T1, COX-2 (Ovis aries, UniProt P79208); experiment: COX-2-catalyzed prostaglandin production inhibition; type: biochemical, sheep; conditions: mean ± standard deviation, three replicas
T1 construct: purchased Cayman Chemical Company, Ann Arbor, MI, USA; host or cells: sheep placenta (tissue)
T1 sequence (P79208 17-603): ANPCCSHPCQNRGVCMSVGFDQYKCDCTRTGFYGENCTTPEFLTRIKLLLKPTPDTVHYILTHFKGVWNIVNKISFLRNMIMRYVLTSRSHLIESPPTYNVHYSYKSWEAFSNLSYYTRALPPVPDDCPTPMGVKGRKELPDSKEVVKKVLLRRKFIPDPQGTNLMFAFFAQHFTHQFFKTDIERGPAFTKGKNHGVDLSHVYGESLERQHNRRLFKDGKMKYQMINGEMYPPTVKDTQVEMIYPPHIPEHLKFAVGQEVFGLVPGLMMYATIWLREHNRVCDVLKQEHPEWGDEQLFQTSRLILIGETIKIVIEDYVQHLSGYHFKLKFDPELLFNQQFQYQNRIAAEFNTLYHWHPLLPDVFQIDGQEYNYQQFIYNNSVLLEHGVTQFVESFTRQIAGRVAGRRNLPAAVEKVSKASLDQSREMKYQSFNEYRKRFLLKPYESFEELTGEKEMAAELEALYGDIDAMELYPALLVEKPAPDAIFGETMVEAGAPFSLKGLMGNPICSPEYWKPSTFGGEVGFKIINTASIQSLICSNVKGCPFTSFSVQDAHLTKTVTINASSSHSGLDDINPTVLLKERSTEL
Description: The COX inhibitory effects of the substances were examined using a COX-1/COX-2-catalyzed prostaglandin production test, using a modified approach by Futaki et al.. The chemicals were dissolved in 4% DMSO to a final concentration of 100 µg/mL.
In this test, one unit of COX-1 or COX-2 enzyme was suspended in a 0.1 M Tris-HCl buffer (pH 7.5) containing hematin ([…]) and phenol (2 mM) as cofactors. The COX-1 enzyme was produced from ram seminal vesicles, while COX-2 was taken from sheep placenta with a purity of 70% (both from Cayman Chemical Company, Ann Arbor, MI, USA). The reaction mixture was preincubated with either the solvent vehicle (4% DMSO) or the test solution for 2 min at 37 °C. […] Arachidonic acid, tagged with radioactive carbon ([1–14C]), serves as a substrate for the COX enzymes. The mixture was then incubated for an additional 2 min at 37 °C. […] The organic solvent phase was removed, and the PGE2 level in the remaining aqueous phase was quantified using a radioimmunoassay with a liquid scintillation counter, which measures the radioactivity (disintegrations per minute, DPM) of the [1–14C]-labeled PGE2. The percentage inhibition of COX-catalyzed prostaglandin production by the test compounds was estimated by comparing the radioactivity of the samples with the solvent vehicle controls. […]

MDA-MB-231 = experiment: MTT cell viability, MDA-MB-231; type: cell-based, Human; conditions: Homo sapiens, MDA-MB-231; MTT test; 72 h of treatment (Figure 3); read-out: IC50 Value ± SD, MDA-MB-231
Description: These cell lines were selected to represent distinct sub-types of breast cancer for extensive investigation. […] The medium was added with 10% heat-inactivated fetal calf serum (FCS) to supply vital growth hormones and nutrients necessary for cell proliferation. Additionally, 1% penicillin streptomycin was administered to avoid bacterial contamination, ensuring the sterility and integrity of the cell cultures. The cell cultures were maintained at 37 °C in a humidified environment containing 5% CO2. This controlled environment mimics physiological conditions in the human body, supporting optimal cell development and function. The humidified atmosphere prevents medium evaporation, while the 5% CO2 concentration maintains optimal pH values in the culture medium. These specialized circumstances and methods ensure that the breast cancer cell lines remain healthy and viable for experimental procedures, delivering dependable and reproducible results for research projects. The standard protocols followed for cultivating these cells are crucial for generating consistent and reliable data. Using well-characterized cell lines from a credible source like ATCC ensures the re-liability and comparability of the experimental outcomes.
This approach determines cell viability based on the ability of living cells to decrease MTT to a purple, water-insoluble formazan product. Cells were planted in 96-well plates at a density of 1 × 10^4 cells per well in 100 μL of complete culture media, which provides all necessary nutrients for cell growth. […] The cells were then treated with the compounds for 24, 48, and 72 h to determine the effect on cell viability over varied time intervals. Following each incubation time, 20 μL of MTT solution (at a concentration of 5 mg/mL in PBS) were applied to each well. The plates were further incubated for 4 h at 37 °C, during which time live cells decrease the MTT to formazan, creating purple crystals. At the end of the incubation, the medium containing the MTT was carefully aspirated, leaving only the formazan crystals in the bottom of the wells. […]

[1] = system: peripheral blood mononuclear cells (PBMC); experiment: MTT cell viability, PBMC (normal cell control); type: cell-based; conditions: PBMC, MTT test, 72 h of treatment (Figure 3), read-out: IC50 Value ± SD, PBMC
Description: This approach determines cell viability based on the ability of living cells to decrease MTT to a purple, water-insoluble formazan product. Cells were planted in 96-well plates at a density of 1 × 10^4 cells per well in 100 μL of complete culture media, which provides all necessary nutrients for cell growth. […] The cells were then treated with the compounds for 24, 48, and 72 h to determine the effect on cell viability over varied time intervals. Following each incubation time, 20 μL of MTT solution (at a concentration of 5 mg/mL in PBS) were applied to each well. The plates were further incubated for 4 h at 37 °C, during which time live cells decrease the MTT to formazan, creating purple crystals. At the end of the incubation, the medium containing the MTT was carefully aspirated, leaving only the formazan crystals in the bottom of the wells. To dissolve these crystals, 100 μL of DMSO were administered to each well. […] This formula quantifies the reduction in cell viability in response to the treatments compared to the control. […] Cisplatin, a known anticancer drug, was used as a reference drug at varying concentrations from 0.01 to 50 µg/mL.

MCF-7 cells = conditions: ref Seresht et al. (2019) [79], cited from earlier work

- IC50 (COX-2): 177 µM
- IC50 (MDA-MB-231): 8.22 ± 0.94 µg/mL (≈ 54.7 µM)
SMILES: Cc1ccc(C(C)C)c(O)c1 [Thymol, 2-isopropyl-5-methylphenol]
- IC50 [1]: 307 ± 3.48 µg/mL (≈ 2050 µM)
- IC50 on MCF-7 cells (MCF-7 cells; 48 h): 54 µg/mL (≈ 359 µM)
- IC50 on MCF-7 cells (MCF-7 cells; 72 h): 62 µg/mL (≈ 413 µM)
